Structures can show the parent of a compound that is named as a salt.
What was measured:
Type in all cases: cell-based
C. albicans [1] = test: in vitro microbicidal activity of dexpanthenol solutions in 0.25% Bis-Tris Propane buffer preserved with PHMB (Example 2); conditions: PHMB 0.5 ppm; for Log Reduction Calibicans 4 hour: C. albicans, room temperature, Bis-Tris Propane 0.25%, Cremophor 0.20%, Inositol 3.0%, Allantoin 0.1%, pH 7.2, dexpanthenol 0.1% or none
Protocol: (§1) Formulations containing dexpanthenol were prepared in a 0.25% Bis-Tris Propane buffer. The solutions were made isotonic with sodium chloride and preserved with polyhexamethylene biquanide at 0.00005%. The pH was adjusted to 7.2 with either 1 N sodium hydroxide or 1 N hydrochloric acid. The in vitro microbicidal activity of the solutions was determined by exposing C. albicans to 10 ml of each solution at room temperature for 4 hours. Subsequently, an aliquot of each solution was serial diluted onto agar plates and incubated for 48 hours at elevated temperatures. At the conclusion of the incubation period the plates are examined for the development of colonies. The log reduction was determined based on a comparison to the inoculum control. The following table provides the results of the in vitro studies.

E. coli [2] = test: in vitro anti-microbial activity of vitamin B solutions in 0.5% Tris buffer with PHMB (Example 3); conditions: for effect on the preservative (PHMB): 0.5% vitamin B, 1 ppm PHMB, E. coli 1 hour; for Log Reduction at 1 hr: E. coli, room temperature, 0.5% Tris, 0.6% sodium chloride, pH 7.2, 1 ppm PHMB, vitamin B 0.5% or none
Protocol: (§2) Formulations containing Dexpanthanol (Spectrum), Pyridoxine HCl (Spectrum) Thiamine HCl (Spectrum), and no Vitamin B control were prepared in a 0.5% Tris buffer containing 0.6% sodium chloride. The pH was adjusted with 1 N HCl to a final pH of 7.2. Polyhexamethylene biquanide (PHMB) at 0.0001% was added to each formulation. The in vitro anti-microbial activity of the solutions was determined by exposing E. coli to 10 ml of each solution at room temperature for 1 hours. Subsequently, an aliquot of each solution was serial diluted onto agar plates and incubated for 48 hours at elevated temperatures. At the conclusion of the incubation period the plates are examined for the development of colonies. The log reduction was determined based on a comparison to the inoculum control.

E. coli [3] = test: in vitro anti-microbial activity of vitamin B solutions in 0.5% Tris buffer with benzalkonium chloride (Example 4); conditions: for effect on the preservative (BAK): 0.5% vitamin B, 25 PPM BAK, E. coli 1 hour; for Log Reduction at 1 hr: E. coli, 0.5% Tris
Protocol: as §2, with “Polyhexamethylene biquanide (PHMB) at 0.0001% was added to each formulation.” left out, “hour.” for “hours.”, “control. The following table provides the results of the in vitro studies.” for “control.”

C. albicans [4] = test: in vitro microbicidal activity of vitamin B solutions in 0.2% phosphate buffer preserved with PHMB (Example 1); conditions: PHMB 0.0001%; for activity against C. albicans as compared to the buffer control: 0.5% additive, 4 hours; for 4 Hour Log Reduction: C. albicans, room temperature, additive 0.5% in 0.2% phosphate buffer, isotonic, pH 7.2, vs inoculum control
Protocol: as §1, with “Pyridoxine HCl (Spectrum) and Thiamine HCl (Fisher)” for “dexpanthenol”, “0.2% phosphate” for “0.25% Bis-Tris Propane”, “biguanide” for “biquanide”, “0.0001%.” for “0.00005%.”, “control.” for “control. The following table provides the results of the in vitro studies.”

[5] = room temperature, 0.6% sodium chloride, pH 7.2, 25 PPM BAK, vitamin B 0.5%

Molecule	Log Reduction Calibicans 4 hour (C. albicans [1])	preservative efficacy over a solution with a preservative alone (C. albicans [1]; dexpanthenol 0.1%, C. albicans 4 hours)	effect on the preservative (PHMB) (E. coli [2])	Log Reduction at 1 hr (E. coli [2])	effect on the preservative (BAK) (E. coli [3])	Log Reduction at 1 hr (E. coli [3]; [5])	activity against C. albicans as compared to the buffer control (C. albicans [4])	4 Hour Log Reduction (C. albicans [4])	Log Reduction at 1 hr (E. coli [3]; no vitamin B, row printed with 1 ppm PHMB)
CC(C)(CO)[C@@H](O)C(=O)NCCCO [Dexpanthenol, dexpanthenol]	4.9	improved preservative efficacy	enhancement of the preservative	4.82	enhancement of the preservative	>5.12			
Cc1ncc(CO)c(CO)c1O.Cl [Pyridoxine HCl]			enhancement of the preservative	4.34	enhancement of the preservative	>5.12	improvement in the activity	2.0	
Cc1ncc(C[n+]2csc(CCO)c2C)c(N)n1 [Thiamine HCl]			enhancement of the preservative	5.12		3.30	improvement in the activity	1.0	
polyhexamethylene biguanide [PHMB]	3.8			0.42					0.42
